Data on 24 compounds can be found in PubChem BioAssay (NCI).

Each structure is given as a SMILES string.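 Compound exposure: 48 hours, 5 concentrations, 96-well plates. GI50 marks 50% less growth. Definition used: TGI = concentration required for complete inhibition of growth.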

Among the test systems are ACHN renal; DMS 114 small cell lung; HCC-2998 colon; HOP-92 NSCLC; LOX IMVI melanoma; M14 melanoma; SNB-78 CNS; TK-10 renal; SK-OV-3 ovarian; MDA-MB-231 breast.
What all share (experiment): DTP human tumour cell line panel, 48 h

As usually defined, the TGI is the concentration at which net growth stops. A higher TGI goes with less potent growth arrest. `O=C(N/C(=C\c1ccc(/C=C(\NC(=O)c2ccccc2)c2nc3ccccc3s2)cc1)c1nc2ccccc2s1)c1ccccc1`: the concentration for total growth inhibition (TGI) worked out at 16.7 µM with ACHN renal; 25.9 µM in the test on DMS 114 small cell lung; 27.8 µM in the test with HCC-2998 colon; 25.6 µM in the test with HOP-92 NSCLC; 13.3 µM in the test with LOX IMVI melanoma; 11.9 µM with M14 melanoma. The TGI in the test with SNB-78 CNS amounted to 62.3 µM; in the test on TK-10 renal it was 25.2 µM.

With `Cn1c(=O)c(C(=O)NC(=O)NCCCCCOC(=O)CCCCCCCCCCC(=O)OCCCCCNC(=O)NC(=O)c2cn(Cc3ccccc3)c(=O)n(C)c2=O)cn(Cc2ccccc2)c1=O`, the total growth inhibition concentration (TGI) in the test with ACHN renal, with DMS 114 small cell lung, in the test on HCC-2998 colon, in the test on HOP-92 NSCLC, with LOX IMVI melanoma and in the test with M14 melanoma was more than 100 µM throughout. Also, the TGI in the test on SK-OV-3 ovarian, in the test on SNB-78 CNS and in the test with TK-10 renal was more than 100 µM each time.

Take `CC1(C(=O)O)CCOc2ccccc21` (centres undefined): the total growth inhibition concentration (TGI) in the test on ACHN renal, in the test on DMS 114 small cell lung, in the test with HCC-2998 colon, in the test with HOP-92 NSCLC, in the test on LOX IMVI melanoma and in the test with M14 melanoma was more than 100 µM throughout. In addition, the total growth inhibition concentration (TGI) with SNB-78 CNS and in the test on TK-10 renal was more than 100 µM each time.

`O=C(Nc1nc2ccc([N+](=O)[O-])cc2s1)C(=O)C(C(=O)c1ccncc1)C1OC(=O)c2ccccc21` (centres undefined): the TGI with ACHN renal, with DMS 114 small cell lung, with HCC-2998 colon, in the test with HOP-92 NSCLC, with M14 melanoma and in the test with SNB-78 CNS was more than 100 µM throughout.

In the case of `CCn1c(=O)c2ccccc2n2c(=O)c3cc4ccccc4cc3nc12`, the concentration for total growth inhibition (TGI) in the test with ACHN renal, with DMS 114 small cell lung, in the test on HCC-2998 colon, in the test with LOX IMVI melanoma, in the test on M14 melanoma and with SK-OV-3 ovarian was more than 100 µM throughout. Besides, the TGI in the test on SNB-78 CNS and in the test on TK-10 renal was more than 100 µM each time.

With `NCc1c(C(N)=O)ncn1Cc1ccccc1`, the TGI in the test with ACHN renal, in the test with DMS 114 small cell lung, in the test with HCC-2998 colon, with HOP-92 NSCLC, in the test on LOX IMVI melanoma and in the test on M14 melanoma was more than 100 µM throughout. In addition, the TGI in the test with SK-OV-3 ovarian, in the test with SNB-78 CNS and in the test on TK-10 renal was more than 100 µM throughout.

With `Cc1c(-c2nnc(-c3ccccc3)o2)c(=O)n(-c2ccccc2)n1C`, the total growth inhibition concentration (TGI) with ACHN renal, in the test on DMS 114 small cell lung, with HCC-2998 colon, in the test on HOP-92 NSCLC, in the test on LOX IMVI melanoma and with M14 melanoma was more than 100 µM each time. Also, the concentration for total growth inhibition (TGI) in the test on SK-OV-3 ovarian, in the test on SNB-78 CNS and in the test on TK-10 renal was more than 100 µM each time.

As to `CCOC(=O)N1C(c2ccccc2)C=CC(c2ccccc2)N1C(=O)OCC` (centres undefined), the TGI with ACHN renal, with DMS 114 small cell lung, with HOP-92 NSCLC, with LOX IMVI melanoma, in the test with SNB-78 CNS and in the test with TK-10 renal was more than 100 µM each time.

As to `O=C1C(=O)N(c2nccs2)C(=O)C(=O)C1c1nc2ccccc2s1`, the TGI in the test on ACHN renal, in the test with DMS 114 small cell lung, in the test with HCC-2998 colon, in the test on HOP-92 NSCLC, with LOX IMVI melanoma and in the test with M14 melanoma was more than 100 µM each time. Besides, the TGI in the test on SK-OV-3 ovarian, in the test on SNB-78 CNS and in the test with TK-10 renal was more than 100 µM throughout.

For the compound `CC(C)CC12CC3CCC(CNC1=O)C32C` (centres undefined), the TGI in the test on ACHN renal, in the test with DMS 114 small cell lung, in the test on HCC-2998 colon, in the test on HOP-92 NSCLC, in the test with LOX IMVI melanoma and with M14 melanoma was more than 100 µM each time. Further, the TGI with SK-OV-3 ovarian, in the test on SNB-78 CNS and in the test on TK-10 renal was more than 100 µM throughout.

A word on the GI50: it is the concentration that inhibits growth by half. In the case of `O=c1cccccc1[O-].O=c1cccccc1[O-].O=c1cccccc1[O-].[Ce+3]`, the concentration for total growth inhibition (TGI) in the test on ACHN renal was 96.3 µM; with HCC-2998 colon, more than 100 µM; with HOP-92 NSCLC, 89.9 µM; in the test with LOX IMVI melanoma, more than 100 µM; in the test on M14 melanoma it was more than 100 µM; in the test with SK-OV-3 ovarian, 72.3 µM. Further, the concentration for total growth inhibition (TGI) with SNB-78 CNS came to 63.2 µM; with TK-10 renal, 65.2 µM. Moreover, the GI50 with SNB-78 CNS is 15.4 µM.

For the compound `CCCCn1c2ccccc2c2ccc3c(c21)C(=O)C=CC3=O`, the TGI in the test with ACHN renal, in the test on DMS 114 small cell lung, in the test on HCC-2998 colon, in the test with HOP-92 NSCLC, in the test with LOX IMVI melanoma and in the test with M14 melanoma was more than 100 µM in each case. Besides, the concentration for total growth inhibition (TGI) in the test on SK-OV-3 ovarian, in the test on SNB-78 CNS and with TK-10 renal was more than 100 µM throughout.

As to `CC1CCCc2c1c1ccc3c(O)cccc3c1oc2=O` (centres undefined), the total growth inhibition concentration (TGI) in the test on ACHN renal was more than 100 µM; with DMS 114 small cell lung, 76.3 µM; with HCC-2998 colon it was more than 100 µM; in the test on LOX IMVI melanoma it was more than 100 µM; in the test on M14 melanoma it was more than 100 µM; in the test with SK-OV-3 ovarian it was 61.6 µM. The values for the TGI in the test on SNB-78 CNS and in the test on TK-10 renal were more than 100 µM and 71.3 µM, respectively.

In the case of `S=c1sc2cscc2s1`, the total growth inhibition concentration (TGI) in the test with ACHN renal was 42.5 µM; in the test with DMS 114 small cell lung it was 45.2 µM; with HCC-2998 colon it was 32.8 µM; with HOP-92 NSCLC it was 70.3 µM; with LOX IMVI melanoma, more than 100 µM; in the test with M14 melanoma it was 39.9 µM. Also, the values for the TGI with SK-OV-3 ovarian, in the test with SNB-78 CNS and in the test with TK-10 renal were 77.3 µM, more than 100 µM and 40.2 µM, respectively.

`CC(=O)[O-].[Zn].c1ccc(/C(=N\Nc2ccccn2)c2ccccn2)cc1`: the 50% growth inhibitory concentration (GI50) is 0.0241 µM in the test with ACHN renal; 0.0122 µM in the test with HOP-92 NSCLC; 0.32 µM in the test on LOX IMVI melanoma; 0.0468 µM in the test with M14 melanoma; 0.507 µM with SK-OV-3 ovarian. Moreover, the concentration for total growth inhibition (TGI) with ACHN renal stood at 5.03 µM; in the test with DMS 114 small cell lung, 0.0192 µM; with HCC-2998 colon, 2.07 µM; with HOP-92 NSCLC, 13.3 µM; with LOX IMVI melanoma, 1.59 µM; in the test on M14 melanoma it was 1.43 µM. In addition, the TGI in the test on SK-OV-3 ovarian was determined as 2.79 µM; with SNB-78 CNS, 12.5 µM; in the test on TK-10 renal, 3.34 µM.

Consider `O=C(NC1C2CC3CC(C2)CC1C3)/C(Cl)=C1/Sc2ccccc2NC1=O` (centres undefined), for which the TGI with ACHN renal, with DMS 114 small cell lung, with HCC-2998 colon, with HOP-92 NSCLC, in the test with LOX IMVI melanoma and in the test on M14 melanoma was more than 100 µM in each case. Moreover, the total growth inhibition concentration (TGI) in the test with SNB-78 CNS and in the test on TK-10 renal was more than 100 µM throughout.

For `OCC(O)C(O)C(O)c1nn(-c2ccccc2)c2nc3cc(Cl)c(Cl)cc3nc12` (centres undefined), the concentration for total growth inhibition (TGI) is more than 100 µM in the test with ACHN renal; more than 100 µM with DMS 114 small cell lung; 98.4 µM in the test with HCC-2998 colon; more than 100 µM in the test with LOX IMVI melanoma; 41.1 µM with M14 melanoma; more than 100 µM with SK-OV-3 ovarian. Further, the concentration for total growth inhibition (TGI) in the test with SNB-78 CNS and with TK-10 renal was more than 100 µM in each case.

Consider `O=C(CNc1ccc2c(=S)c3ccccc3[nH]c2c1)Nc1ccccc1-c1ccccc1NC(=O)CNc1ccc2c(=S)c3ccccc3[nH]c2c1`, for which the concentration for total growth inhibition (TGI) in the test on ACHN renal was determined as 28.5 µM; in the test with DMS 114 small cell lung it was 36.6 µM; in the test with HCC-2998 colon, 31.5 µM; with HOP-92 NSCLC, 51.2 µM; in the test with LOX IMVI melanoma it was 55.6 µM; in the test on M14 melanoma, 41.4 µM. The total growth inhibition concentration (TGI) in the test on MDA-MB-231 breast was more than 51.7 µM; with SK-OV-3 ovarian, 48.5 µM; in the test on SNB-78 CNS it was 82.9 µM; in the test with TK-10 renal it was 43.9 µM.

As for `CC(=O)/C=C1\CC(=O)Nc2ccccc2N1`, the concentration for total growth inhibition (TGI) in the test with ACHN renal, with DMS 114 small cell lung, in the test with HCC-2998 colon, in the test on HOP-92 NSCLC, in the test on LOX IMVI melanoma and in the test with M14 melanoma was more than 100 µM throughout. The TGI with SK-OV-3 ovarian, in the test with SNB-78 CNS and in the test on TK-10 renal was more than 100 µM each time.

Consider `CC(=O)OC1CCC2C(=CCC3C2(C)C(=O)CC2(C)C(C4(C)OC(C(C)C)=CC4=O)C(O)CC32C)C1(C)C` (centres undefined), for which the TGI in the test with ACHN renal was more than 100 µM; in the test on DMS 114 small cell lung, 57.8 µM; with HOP-92 NSCLC it was more than 100 µM; in the test with M14 melanoma, 50.9 µM; in the test on SK-OV-3 ovarian, more than 100 µM; in the test on SNB-78 CNS, more than 100 µM.

As for `CC(C)C(=O)[O-].CC(C)C(=O)[O-].N.N.N.N.[Co+3].[O-][Cl+3]([O-])([O-])[O-]`, the GI50 with ACHN renal, with HCC-2998 colon, in the test with HOP-92 NSCLC, with LOX IMVI melanoma, with M14 melanoma and in the test with SK-OV-3 ovarian was more than 100 µM in each case. Also, the GI50 in the test on SNB-78 CNS and in the test on TK-10 renal was more than 100 µM each time. Also, the TGI in the test on ACHN renal, in the test with HCC-2998 colon, in the test with HOP-92 NSCLC, in the test on LOX IMVI melanoma, in the test with M14 melanoma and in the test on SK-OV-3 ovarian was more than 100 µM in each case. The total growth inhibition concentration (TGI) in the test on SNB-78 CNS and with TK-10 renal was more than 100 µM each time.

In the case of `CCN(CC)c1ccc(N=C2C=C(Cl)C(=O)c3ncccc32)c(C)c1`, the concentration for total growth inhibition (TGI) came to 11.1 µM in the test with ACHN renal; 8.19 µM with DMS 114 small cell lung; 7.2 µM in the test with HOP-92 NSCLC; 26.9 µM with LOX IMVI melanoma; 8.31 µM in the test on M14 melanoma; 67.9 µM with SK-OV-3 ovarian. Besides, the concentration for total growth inhibition (TGI) with SNB-78 CNS is 43.4 µM; in the test with TK-10 renal, 29.2 µM.

For `CC(NC(=O)C(=O)N/N=C1\C[C@@H](c2ccccc2)Nc2ccccc21)c1ccccc1` (some centres undefined), the total growth inhibition concentration (TGI) with ACHN renal, in the test on DMS 114 small cell lung, in the test on HCC-2998 colon, in the test with HOP-92 NSCLC, with LOX IMVI melanoma and in the test on M14 melanoma was more than 100 µM throughout. Moreover, the TGI in the test with SNB-78 CNS and in the test on TK-10 renal was more than 100 µM throughout.

Consider `CCOC(=O)c1ccc(N2C(=O)Cc3ccccc3C2=O)cc1`, for which the TGI in the test on ACHN renal, with DMS 114 small cell lung, in the test with HCC-2998 colon, with SK-OV-3 ovarian, in the test with SNB-78 CNS and with TK-10 renal was more than 100 µM throughout.
